Reference: patent publication US4514403A, “Hydrouracil compounds” (Yoshitomi Pharmaceutical Industries Ltd., priority 1980, dated 1985)
Where a name gives a salt, the structure may show the parent alone.

Assays:
Tolerance test = format: in vivo; settings: continuous administration
central nervous system = assay: Activity on central nervous system; settings: in vivo
[1] = system: evoked potentials in central nervous system; assay: Effect on the various evoked potentials in central nervous system; format: in vivo, Male Wistar rats; parameters: key to Amplitude of Evoked Responses, VP-COR / Amplitude of Evoked Responses, HIP-AMY / Amplitude of Evoked Responses, HIP-SEP: -: No change; --: No change; (+): Levallorphan antagonism; (-): Levallorphan antagonism
Method: Male Wistar rats, weighing 300-350 g, were used under ethyl ether anesthesia. The trachea and femoral vein were cannulated for artificial respiration and drug injection, respectively. Immobilization of the rat was maintained by gallamine thioethiodide (10 mg/kg) given intravenously every one hours. All wound edges were infiltration with carbocaine hydrochloride. The experiments began after at least 2 hours had elapsed from discontinuance of ether anesthesia. The COR (somatosensory cortex) evoked potentials by VP (neucleus ventralis posterior thalamus) stimulation (VP - COR evoked potential) were recorded from somatosensory cortex, through a silver electrode applied directly to the cortex. In order to record VP and MRF (midbrain reticular formation) evoked potentials by sciatic nerve stimulation or AMY (amygdala) and SEP (septum) evoked potentials by HIP (hippocampus) stimulation, bipolar stainless steel electrodes were stereotaxically placed into the VP, MRF, AMY, SEP and HIP. The stimuli were delivered to various sites every 2 seconds from a stimulation and consisted of 0.1 msec rectangular pulses (twice threshold intensity). The evoked responses were visualized on an oscilloscope. All records were made up of 20 superimposed tracings.

[2] = rat, in vivo
[3] = rat, in vivo; remark: listed apart in the source
in vivo = settings: rat
Hot plate test = settings: Rattus norvegicus, sc, read-out: Hot Plate Test ED50
Method: (§1) Phenylquinone writhing test, electric stimuli test, tooth pulp nociception test, hot plate test and AgNO3 arthritis test were performed according to the methods described by Y. Marayama et al. in "Arzneimittel-Forschung", 28 (11), 2102-2107 (1978), and bradykinin nociception test was performed by the method described by G. F. Blane in "Journal of Pharmacy and Pharmacology", 19, 367-373 (1967).

Mouse jumping test = settings: administration at a lethal dose
Electric stimuli test = settings: Mus musculus, read-out: Electric Stimuli Test ED50
[4] = Phenylquinone writhing test; settings: for ED50: Mus musculus, read-out: Phenylquinone Writhing Test ED50
Method: as §1

[5] = Tooth pulp nociception test
Method: as §1

[6] = Bradykinin nociception test; settings: for ED50: Rattus norvegicus, read-out: Bradykinin Nociception Test ED50
[7] = Analgesic activity (overall)
Method: as §1

[8] = Antagonism by levallorphan in electric stimuli test; settings: electric stimuli test in mice; levallorphan (narcotic antagonist)
[9] = calculated from inhibition (%) in a low dose

CN1C(=O)CCN(C2CCN(CC=Cc3ccccc3)CC2)C1=O [Test compound A, 1-(1-cinnamyl-4-piperidyl)-3-methyl-hydrouracil hydrochloride]
cross tolerance against codeine (Tolerance test): did not show a cross tolerance against codeine
tolerance (decrease of effects) (Tolerance test): did not cause a significant decrease of effects
muscle relaxant activity (central nervous system): weak
reserpine potentiating activity (central nervous system): weak
suppression of spontaneous locomotor activity (central nervous system): weak
levallorphan antagonism of VP - COR response [1]: levallorphan did not antagonize the response
Amplitude of Evoked Responses, HIP-AMY ([1]; 5 mg/kg i.v.): --
Amplitude of Evoked Responses, HIP-SEP ([1]; 5 mg/kg i.v.): --
Amplitude of Evoked Responses, VP-COR ([1]; 5 mg/kg i.v.): --
Amplitude of Evoked Responses, HIP-AMY ([1]; 10 mg/kg i.v.): --
Amplitude of Evoked Responses, HIP-SEP ([1]; 10 mg/kg i.v.): --
Amplitude of Evoked Responses, HIP-AMY ([1]; 25 mg/kg i.v.): --
Amplitude of Evoked Responses, HIP-SEP ([1]; 25 mg/kg i.v.): --
HIP - AMY evoked potential ([1]; i.v.): no effect
HIP - SEP evoked potential ([1]; i.v.): no effect
amplitude of the VP - COR evoked potential ([1]; i.v.): reduced the amplitude of the VP - COR evoked potential
body weight reduction [2]: not reduced
compensatory adjustment against codeine [3]: had not compensatory adjustment against codeine
LD50 (in vivo; ip): 150 mg/kg
LD50 (in vivo; po): 450 mg/kg
LD50 (in vivo; sc): 300 mg/kg
ED50 (Hot plate test): 10 mg/kg
jumping symptom (Mouse jumping test): did not cause any jumping symptom
ED50 (AgNO3 arthritis test; Rattus norvegicus, sc, read-out: AgNO3 Arthritis Test ED50): 7 mg/kg
Relative potency (Test compound A = 1), AgNO3 Arthritis Test (AgNO3 arthritis test; calculated from ED50): 1
Relative potency (Test compound A = 1), AgNO3 Arthritis Test (AgNO3 arthritis test; [9]): 1
Inhibition (%) of Occurrence of Pain (AgNO3 arthritis test; rats, 5 mg/kg s.c.): 42%
ED50 (Electric stimuli test; po): 200 mg/kg
ED50 (Electric stimuli test; sc): 23 mg/kg
ED50 ([4]; po): 17 mg/kg
ED50 ([4]; sc): 1 mg/kg
Relative potency (Test compound A = 1), Phenylquinone Writhing Test ([4]; calculated from ED50): 1
Relative potency (Test compound A = 1), Phenylquinone Writhing Test [4, 9]: 1
Inhibition (%) of Occurrence of Pain ([4]; mice, 0.5 mg/kg s.c.): 48%
Relative potency (Test compound A = 1), Tooth Pulp Nociception Test ([5]; calculated from ED50): 1
Relative potency (Test compound A = 1), Tooth Pulp Nociception Test [5, 9]: 1
increasing rate in threshold ([5]; rabbits, 2.5 mg/kg i.v.): 75%
ED50 ([6]; po): 40 mg/kg
ED50 ([6]; sc): 4 mg/kg
Relative potency (Test compound A = 1), Bradykinin Nociception Test ([6]; calculated from ED50): 1
Relative potency (Test compound A = 1), Bradykinin Nociception Test [6, 9]: 1
Inhibition (%) of Occurrence of Pain ([6]; rats, 2.5 mg/kg s.c.): 38%
analgesic activity in a low dose [7]: stronger than tramadol and pentazocine
Influence of levallorphan on analgesic activity [8]: did not influence the analgesic activity
